Values quoted from earlier work, collected in PMC139967 (BMC Biochemistry, 2002).

Tested on: calmodulin

Sequence: KAHKAATKIQASFRGHITRKKLKC [NM]
- effect of high ionic strength on calmodulin binding: reduced by high ionic strength
